According to patent publication US20230391756A1, “NEW COMPOUND” (JANSSEN PHARMACEUTICA NV, priority 2020, published 2023):

Tests used:
[1] = tested on: TNF; assay: PBMC assay: TNF cytokine level after LPS stimulation; format: cell-based; conditions: human PBMCs, 100 ng/ml LPS for 6 hrs, MSD, read-out: TNFα EC50
Experimental: (§1) Peripheral venous blood was collected from healthy individuals and human peripheral blood mononuclear cells (PBMCs) were isolated from blood by Ficoll-Histopaque (Sigma-Aldrich, A0561) density gradient centrifugation. After isolation, PBMCs were stored in liquid nitrogen for later use. Upon thawing, PBMC cell viability was determined in growth medium (RPMI media supplemented with 10% fetal bovine serum, 1% Pen-Strep and 1% L-glutamine). […] PBMCs were added at a density of 7.5×10^4 cells per well and incubated for 30 min in a 5% CO2 incubator at 37° C. LPS stimulation was performed by addition of 100 ng/ml LPS (final concentration, Invivogen, tlrl-smlps) for 6 hrs followed by collection of cellular supernatant and the analysis of IL-1β (μM) and TNF cytokines levels (μM) via MSD technology according to manufacturers' guidelines (MSD, K151A0H).

[2] = tested on: NLRP3 inflammasome pathway (IL-1β); assay: PBMC assay: IL-1β release after LPS stimulation; format: cell-based; conditions: human PBMCs, 100 ng/ml LPS for 6 hrs, MSD
Experimental: The activity of a compound according to the present invention can be assessed by in vitro methods.
as §1

Structure (SMILES)	melting point [°C]	EC50 [1] [µM]	IC50 [2] [µM]
CCn1nc(CC(=O)Nc2ccc3nncn3n2)c(=O)c2ccc(C3CC3)cc21 [F-141]	223	9.77	0.12
O=C(Cc1nn(C2CC2)c2cc(Br)ccc2c1=O)Nc1cn2cnnc2cn1 [F-113]	277.2	> 20	0.513
CC(F)(F)c1ccc2c(=O)c(CC(=O)Nc3cn4cnnc4cn3)nn(C3CC3)c2c1 [F-108]	257.9	> 20	0.985
O=C(Cc1nn(C2CC2)c2cc(Br)ccc2c1=O)Nc1ccc2nncn2c1 [F-71]	310	> 20	0.105
CC(C)n1nc(CC(=O)NC2CCc3ncn(C)c3C2)c(=O)c2ccc(C(F)(F)F)cc21 (centres unmarked) [F-43]	221	> 20	5.1
CC(C)n1nc(CC(=O)N[C@H]2C[C@@H](C(C)(C)O)C2)c(=O)c2ccc(C(F)(F)F)cc21 [F-10]	181	> 20	11.6
CC(F)(F)c1ccc2c(=O)c(CC(=O)Nc3ccc4nncn4c3)nn(C3CC3)c2c1 [F-67]	145.4	> 20	0.22
CCn1nc(CC(=O)Nc2ccc3nncn3c2)c(=O)c2ccc(C3CCC3)cc21 [F-46]	113.1	> 20	4.52
CC(C)n1nc(CC(=O)Nc2ccc3nncn3n2)c(=O)c2ccc(C3CCC3)cc21 [F-148]	168.8	4.58	0.513
CC(F)(F)c1ccc2c(=O)c(CC(=O)Nc3ccc4nccn4n3)nn(C3CC3)c2c1 [F-64]	188.9	7.89	0.26
CC(C)n1nc(CC(=O)Nc2nc3ccccc3n2C)c(=O)c2ccc(Br)cc21 [F-100]	205.6	> 20	18.2
CC(C)n1nc(CC(=O)N[C@H]2C[C@@](C)(O)C2)c(=O)c2ccc(C(F)(F)F)cc21 [F-21]	200.9	> 20	0.836
O=C(Cc1nn(C2CC2)c2cc(C(F)(F)F)ccc2c1=O)Nc1ccc2nncn2n1 [F-139]	215.7	> 20	0.21
CCn1nc(CC(=O)Nc2ccc3nncn3c2)c(=O)c2ccc(C(C)(C)F)cc21 [F-74]	238.2	12.5	0.4
CC(C)n1nc(CC(=O)Nc2nc3cc(F)ccc3n2C)c(=O)c2ccc(Br)cc21 [F-97]	245.3	> 20	> 20
CC(C)c1ccc2c(=O)c(CC(=O)Nc3ccc4nncn4n3)nn(C(C)C)c2c1 [F-32]	121.3	6.98	0.109
CC(C)n1nc(CC(=O)Nc2nc3cc(Cl)ccc3o2)c(=O)c2ccc(Br)cc21 [F-104]	199	> 20	2.48
CC(C)n1nc(CC(=O)Nc2nc3ccccc3o2)c(=O)c2ccc(Br)cc21 [F-111]	203.3	> 20	0.62
CCn1nc(CC(=O)N[C@H]2C[C@@](C)(O)C2)c(=O)c2ccc(Br)cc21 [F-5]	203.3	> 20	0.25
Cc1ncc2n1CCC(NC(=O)Cc1nn(C(C)C)c3cc(C(F)(F)F)ccc3c1=O)C2 (centres unmarked) [F-51]	233.4	> 20	2.48
CCn1nc(CC(=O)Nc2ccc3nncn3c2)c(=O)c2ccc(Br)cc21 [F-6]	294.3	> 20	0.102
O=C(Cc1nn(C2CC2)c2cc(C(F)(F)F)ccc2c1=O)Nc1cn2cnnc2cn1 [F-107]	270.9	> 20	1.14
CCn1nc(CC(=O)Nc2ccc3ncn(C)c3n2)c(=O)c2ccc(C(F)(F)F)cc21 [F-57]	237.8	> 20	0.514
CCN1CC[C@H](C)[C@H](NC(=O)Cc2nn(C(C)C)c3cc(C(F)(F)F)ccc3c2=O)C1 (single isomer, unassigned) [F-103]	–	> 20	4.97
O=C(Cc1nn(C2CC2)c2cc(C3CC3)ccc2c1=O)Nc1ccc2nccn2n1 [F-55]	–	> 20	0.62
CC(C)n1nc(CC(=O)Nc2cc(C(F)(F)F)ncn2)c(=O)c2ccc(C(F)(F)F)cc21 [F-16]	–	> 20	6.73
CC(C)n1nc(CC(=O)Nc2ccc3nccn3n2)c(=O)c2ccc(C(C)(F)F)cc21 [F-138]	–	3.43	0.24
CCn1nc(CC(=O)Nc2ccc3nncn3c2)c(=O)c2ccc(C3CC3)cc21 [F-82]	–	> 20	0.18
CCn1nc(CC(=O)Nc2ccncn2)c(=O)c2ccc(Br)cc21 [F-7]	–	> 20	0.45

Other lines, results leading:

melting point [°C]	EC50 [1] [µM]	IC50 [2] [µM]	Structure (SMILES)
214.7	> 20	> 20	CC(C)n1nc(CC(=O)Nc2nc3ccccc3n2C)c(=O)c2ccc(C(F)(F)F)cc21 [F-91]
281.4	> 20	2.95	CC(C)n1nc(CC(=O)Nc2ncc3ncn(C)c3n2)c(=O)c2ccc(C(F)(F)F)cc21 [F-50]
248.9	> 20	0.892	CC(C)n1nc(CC(=O)Nc2ccc3nnc(Cl)n3n2)c(=O)c2ccc(C(F)(F)F)cc21 [F-132]
217.4	> 20	> 20	Cc1ccc2nc(NC(=O)Cc3nn(C(C)C)c4cc(C(F)(F)F)ccc4c3=O)n(C)c2c1 [F-95]
292	> 20	0.62	CC(C)n1nc(CC(=O)Nc2ccc3nncn3c2)c(=O)c2ccc(Cl)cc21 [F-29]
241.6	8.29	0.092	CC(C)n1nc(CC(=O)Nc2ccc3c(c2)[nH]c(=O)n3C)c(=O)c2ccc(C(F)(F)F)cc21 [F-19]
259.8	> 20	0.99	CC(C)n1nc(CC(=O)Nc2ccc3c(C#N)ncn3c2)c(=O)c2ccc(C(F)(F)F)cc21 [F-36]
177.9	> 20	15.3	CC(C)n1nc(CC(=O)Nc2ccc(I)nn2)c(=O)c2ccc(C(F)(F)F)cc21 [F-85]
243.8	~16.5	15	CC(C)n1nc(CC(=O)Nc2nc3cc(C#N)ccc3n2C)c(=O)c2ccc(C(F)(F)F)cc21 [F-101]
291.3	> 20	0.178	CC(C)n1nc(CC(=O)Nc2ccc3nncn3c2)c(=O)c2ccc(C(F)(F)F)cc21 [F-20]
185.8	> 20	12.9	CC(C)n1nc(CC(=O)Nc2ccc(C3CC3)nn2)c(=O)c2ccc(C(F)(F)F)cc21 [F-86]
187.4	> 20	0.9	CC(C)n1nc(CC(=O)Nc2nc3ccccc3o2)c(=O)c2ccc(C(F)(F)F)cc21 [F-110]
256.8	14.6	0.52	CC(C)n1nc(CC(=O)Nc2ccc3nncn3c2)c(=O)c2ccc(C(C)(C)F)cc21 [F-75]
242.9	> 20	> 20	CC(C)n1nc(CC(=O)Nc2nc3ccc(C#N)cc3n2C)c(=O)c2ccc(C(F)(F)F)cc21 [F-92]
217.3	> 20	> 20	Cc1ccc2c(c1)nc(NC(=O)Cc1nn(C(C)C)c3cc(C(F)(F)F)ccc3c1=O)n2C [F-94]
258.8	> 20	0.88	CC(C)n1nc(CC(=O)Nc2ccc(=O)n(C)n2)c(=O)c2ccc(C(F)(F)F)cc21 [F-18]
156.4	> 20	3.19	CCC(C)n1nc(CC(=O)Nc2ccc3nncn3c2)c(=O)c2ccc(C(F)(F)F)cc21 (centres unmarked) [F-49]
226.8	17.4	2.11	CC(C)n1nc(CC(=O)Nc2ccc3nnc(C(F)F)n3c2)c(=O)c2ccc(C(F)(F)F)cc21 [F-39]
216.3	> 20	6.35	Cc1nnc2cc(NC(=O)Cc3nn(C(C)C)c4cc(C(F)(F)F)ccc4c3=O)ccn12 [F-41]
259.7	> 20	0.33	CC(C)n1nc(CC(=O)Nc2nc3ncccn3n2)c(=O)c2ccc(C(F)(F)F)cc21 [F-114]
–	> 20	0.59	Cc1nnc2ccc(NC(=O)Cc3nn(C(C)C)c4cc(C(F)(F)F)ccc4c3=O)nn12 [F-135]
–	> 20	6.87	CC(C)n1nc(CC(=O)Nc2nc3ccc(C(F)(F)F)cn3n2)c(=O)c2ccc(C(F)(F)F)cc21 [F-121]
–	> 20	3.8	CC(C)n1nc(CC(=O)Nc2cn3cc(Br)ncc3n2)c(=O)c2ccc(C(F)(F)F)cc21 [F-116, N-(6-bromoimidazo[1,2-a]pyrazin-2-yl)-2-(1-isopropyl-4-oxo-7-(trifluoromethyl)-1,4-dihydrocinnolin-3-yl)acetamide]
–	> 10	1.61	CC(C)n1nc(CC(=O)Nc2nc3ccc(Br)nn3n2)c(=O)c2ccc(C(F)(F)F)cc21 [F-118]
